Consider five compounds from patent US11246858B2, “Immunoresponsive methods of treating tumors” (Institut Pasteur de Montevideo, priority 2017, dated 2022).

One experiment has as its system IL-1β secretion. The experiment is described as follows: IL-1β secretion by LPS-primed, stimulated WT and TORID KO BMDCs (ELISA). The experiment is classed as cell-based, mouse. To be noted: for IL-1β secretion: WT and TORID KO BMDCs primed with LPS, stimulated with ATP. The protocol: The study shown in FIG. 8 was performed by priming WT and TORID KO mice bone marrow-derived dendritic cells (BMDCs) with 0.25 μg/mL lipopolysaccharide (LPS) for four hours. The BMDCs were then washed and treated with different doses of ATP, Nigericin, and aluminum for 45 minutes as shown in the left column of bar graphs. Alternatively, 0.5 mg/mL ATP, 2.5 μg/mL Nigericin, or 500 μg/mL aluminum were used at different time points as indicated in the right column of bar graphs. IL-1β was quantified by ELISA in the culture supernatant.
The experiment was performed on wildtype and TORID KO mice BMDCs primed with LPS for 3 hours. The BMDCs were subsequently treated with nigericin, ATP, or aluminum for 45 minutes. […] Caspase 1 activation was quantified by FACS using Flica 1 reagent. […] Z-WEHD-FMK was used as the caspase 1 inhibitor, and IL-1β levels were quantified by ELISA in the supernatant of the cell culture stimulated with the indicated compounds.
Inflammasome activation is also associated with an increase of cytosolic Ca^2+. […] Data in this study was generated by loading Ca^2+ sensitive probe Fura-2 in wild type and TORID KO mice BMDCs after priming the BMDCs for three hours with LPS. The cells were exposed to 0.5 mM ATP to elicit inflammasome activation. The cells were excited with a UV laser at 350 nm. Absorbance at 340 nm and 380 nm were recorded in a time lapse manner. As shown in the top illustrations, the TORID KO BMDCs show a higher level of cytosolic Ca^2+. Moreover, IL-1β levels were higher with the TORID KO BMDCs. BAPTA-AM was used to chelate cytosolic Ca^2+.
Potassium (K^+) efflux is also linked to inflammasome activation. In the study shown in FIG. 11, IL-1β synthesis resulting from K^+ was tested. This study was performed on wild type and TORID KO mouse BMDCs treated with LPS and ATP as in the previously described studies herein. Culture medium was replaced by saline buffer containing normal low levels of K^+ (5 mM, K+) or high levels of K^+ (120 mM; K+++). IL-1β was quantified by ELISA in the culture supernatant. As shown in the top graph of FIG. 11, IL-1β levels were higher in the TORID KO mice. […] The results therefore support pharmacological use of TIs to promote inflammasome activation by triggering Ca^2+-activated K^+ channels.
On the technique in general: ELISA stands for enzyme-linked immunosorbent assay.

The next experiment has as its system EG7 and MC38 tumors. The experiment is described as follows: Survival of mice with EG7 and MC38 tumors treated with anti-PD-1 alone or anti-PD-1+Bayk8644. The experiment is classed as in vivo. The settings on record: anti-PD-1 resistant mice; two tumor types (EG7, MC38); anti-PD-1+BAY K8644 vs anti-PD-1 alone.
A further experiment concerns EG7.OVA cells. The experiment is described as follows: EG7.OVA tumor in caspase 1/11 active and caspase 1/11 KO mice treated with BAY K8644. Format: in vivo. The settings on record: 4 mg/kg i.p. daily day 3 to day 15. The text has this: FIG. 17 further confirms the results from FIG. 16 and the proposed mechanism depicted in FIG. 6. Data shown in FIG. 17 was gathered from caspase 1/11 active mice (1/11^+/+) and caspase 1/11 KO mice (1/11^−/−) injected with EG7.OVA cells.

The subject of a further experiment is TORID. In words: TORID activity by ANG-2 probe fluorescence (flow cytometry) in transfected CHO cells. The experiment is classed as cell-based. The protocol: As shown in FIG. 14 Chinese hamster ovarian (CHO) cells were transfected with TORID and Tmem176a and incubated for 24 hours. The cells were subsequently loaded with ANG-2 probe for 30 min RT, washed, and then incubated with (+)-BAY […] or (i)-BAY […] for 30 min. The cells were then analyzed by flow cytometry to evaluate TORID activity. Activity was measured by comparing fluorescence of the ANG-2 probe in TORID+ cells incubated with BAY […] (blue) to the control (red). TORID activity measure as the ANG-2 mean fluorescent intensity (MFI) in normal medium 0(-), 5(+), or 10(++) uM. […] FIG. 15 illustrates analysis of the ANG-2 mean fluorescent intensity (MFI) in normal medium of TORID exposed to BAY […] concentrations of 0 uM (-), 5 uM (+) or 10 uM (++). […] In all cases fluorescence intensity from ANG-2-loaded cells cultured in […] buffer was subtracted.
For orientation: In flow cytometry, cells or beads pass a laser one at a time.

Another experiment concerns EG7.OVA cancer cells. The experiment is described as follows: EG7.OVA tumor-bearing wild type mice treated with BAY K8644. Format: in vivo. The settings on record: EG7.OVA s.c., i.p. daily day 3 to day 15, vs control vehicle. The protocol: Data from in vivo studies depicted in FIG. 16 confirm the effect of pharmacologic inhibition of TORID on tumor growth. The study was performed on wild type mice injected subcutaneously with EG7.OVA cancer cells. Three days after inoculating the wild type mice with EG7.OVA tumor cells, Bay K8644 or a control vehicle, such as ethanol, were injected intraperitoneally daily up to the fifteenth day after tumor cell inoculation.

* marks the point of attachment. Cbz = O=C(OCc1ccccc1)*; CH2F = FC*

Consider `CC(=O)OCOC(=O)CN(CC(=O)OCOC(C)=O)c1ccccc1OCCOc1ccccc1N(CC(=O)OCOC(C)=O)CC(=O)OCOC(C)=O` [BAPTA-AM], for which, in the experiment on IL-1β secretion, the IL-1β secretion entry is reported as “completely blocked IL-1β secretion”.
As for `COC(=O)C1=C(C)NC(C)=C([N+](=O)[O-])C1c1ccccc1C(F)(F)F` (stereo not shown) [BAY K8644, Methyl 2,6-dimethyl-5-nitro-4-[2-(trifluoromethyl)phenyl]-1,4-dihydropyridine-3-carboxylate], the rate of survival entry with EG7 and MC38 tumors is on record as “higher rate of survival”. In the experiment on EG7.OVA cells, the “overall rates of survival vs negative control group not injected” value is given as “higher” and the “survival rate in caspase 1/11 KO vs caspase 1/11 active mice” value is “lowered the survival rate”. In addition, in the experiment with TORID (0, 5 or 10 uM in normal medium, Na-free buffer signal subtracted), the “TORID activity versus BAY K8644 concentration” value is reported as “dose proportional response”. The “TORID activity (ANG-2 mean fluorescent intensity)” value in the experiment with TORID (CHO cells transfected with TORID and Tmem176a, 30 min incubation, vs control) is reported as “inhibits TORID activity”. For the same compound, the disease-free survival rates result with EG7.OVA cancer cells is given as “increased”.
For `CCN(CCO)CCCC(C)Nc1ccnc2cc(Cl)ccc12` (stereo not shown) [HCQ, hydroxychloroquine], in the experiment on IL-1β secretion, the IL-1β secretion entry is recorded as “mimicked iberiotoxin in controlling IL-1β secretion”.
With Cbz-WEHD-CH2F, the “IL-1β levels in culture supernatant” value in the experiment on IL-1β secretion (BMDCs primed with LPS 3 hours, then nigericin, ATP or aluminum, caspase 1 inhibition) is “lower levels of IL-1β”.
Regarding “iberiotoxin: BKCa KCa1.1 specific inhibitor (QFTDVDCSVSKECWSVCKDLFGVDRGKCMGKKCRCYQ; UniProt P24663 1-37, looked up)”, the IL-1β secretion result in the experiment with IL-1β secretion was “blocked IL-1beta secretion”.
